This test concerns P388 leukemia ip, CD2F1 mice, survival T/C. Kind of test: NCI In Vivo Anticancer Drug Screen. Data for tumor model P388 Leukemia (intraperitoneal) in CD2F1 (CDF1) mice. The settings on record: endpoint: median survival time, higher = longer survival. Summed up:
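Mice carrying the transplanted tumor received test compound or vehicle. Survival was recorded in each group, and the value is the treated-group measurement divided by that of the vehicle-treated control group.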

[1] abbreviates: dose: 50.0 mg/kg/injection, schedule: Q01DX005 (ip), vehicle: Klucel (hydroxypropylcellulose) (HPC).
Where [2] appears, read: dose: 100.0 mg/kg/injection, schedule: Q01DX005 (ip), vehicle: Klucel (hydroxypropylcellulose) (HPC).
The mark [3] stands for this setting: dose: 200.0 mg/kg/injection, schedule: Q01DX005 (ip), vehicle: Klucel (hydroxypropylcellulose) (HPC).
The mark [4] stands for this setting: dose: 50.0 mg/kg/injection, schedule: Q01DX009 (ip), vehicle: Klucel (hydroxypropylcellulose) (HPC).
[5] abbreviates: dose: 100.0 mg/kg/injection, schedule: Q01DX009 (ip), vehicle: Klucel (hydroxypropylcellulose) (HPC).
[6] abbreviates: dose: 200.0 mg/kg/injection, schedule: Q01DX009 (ip), vehicle: Klucel (hydroxypropylcellulose) (HPC).
Setting [7] is: dose: 50.0 mg/kg/injection, schedule: Q01DX009 (ip), vehicle: saline with Tween-80.
Where [8] appears, read: dose: 100.0 mg/kg/injection, schedule: Q01DX009 (ip), vehicle: saline with Tween-80.

Several values for one entry are separate records, joined by “and”; a condition that tells them apart may be missing. Equal entries are not always repeated. Inconclusive results and toxic doses are left out.

Turning to `CCN(CC)C1=C(c2ccccc2)C(=O)C1(C#N)C(C)(C)C` (stereo not given), the T/C was 98 % of control under setting [1], 93 % of control under setting [2] and 93 % of control under setting [3].
As to `C=C1C=C(C)C(=O)O1`, the T/C (dose: 100.0 mg/kg/injection, schedule: Q01DX001 (ip), vehicle: saline with Tween-80) is 99 % of control; the T/C (dose: 200.0 mg/kg/injection, schedule: Q01DX001 (ip), vehicle: saline with Tween-80) is 103 % of control; the T/C (dose: 400.0 mg/kg/injection, schedule: Q01DX001 (ip), vehicle: saline with Tween-80) is 105 % of control.
Consider `O=C(Nc1c(Cl)cccc1Cl)Oc1ccc(Cl)cc1`, for which the T/C by setting is: (dose: 60.0 mg/kg/injection, schedule: Q01DX005 (ip), vehicle: saline with Tween-80) 122 % of control; (dose: 120.0 mg/kg/injection, schedule: Q01DX005 (ip), vehicle: saline with Tween-80) 114 % of control.
As for `O=C(CI)Nc1ccc2[nH]c(=O)cc(C(=O)O)c2c1`, the T/C (dose: 25.0 mg/kg/injection, schedule: Q01DX005 (ip), vehicle: Klucel (hydroxypropylcellulose) (HPC)) is 100 % of control; the T/C under setting [1] was 101 % of control; the T/C under setting [2] is 108 % of control.
For the molecule `CCOC(=O)C1(N=O)CCCCC1=O` (stereo not given), the T/C by setting is: (dose: 100.0 mg/kg/injection, schedule: Q01DX001 (ip), vehicle: alcohol) 103 % of control; (dose: 200.0 mg/kg/injection, schedule: Q01DX001 (ip), vehicle: alcohol) 97 % of control; (dose: 400.0 mg/kg/injection, schedule: Q01DX001 (ip), vehicle: alcohol) 108 % of control.
With `Cc1ccc2c(=O)c3ccccc3c3c2c1c1c(C)ccc2c(=O)c4ccccc4c3c21`, the T/C is, setting by setting: under setting [1], 108 % of control; under setting [2], 102 % of control; under setting [3], 107 % of control.
For `CC(C)OC1=C2CCCCC2=[N+]2CCc3ccccc3C2C1` (stereo not given), the T/C runs as follows: (dose: 6.25 mg/kg/injection, schedule: Q04DX003 (ip), vehicle: saline with Tween-80) 107 % of control; (dose: 12.5 mg/kg/injection, schedule: Q04DX003 (ip), vehicle: saline with Tween-80) 107 % of control; (dose: 25.0 mg/kg/injection, schedule: Q04DX003 (ip), vehicle: saline with Tween-80) 99 % of control.
`CCCNC(=NC)c1ccc(NC(=O)c2ccc(C(=O)Nc3ccc(C(=NC)NCCC)cc3)cc2)cc1`: the T/C runs as follows: (dose: 5.2 mg/kg/injection, schedule: Q01DX010 (ip), vehicle: saline) 109 % of control; (dose: 18.0 mg/kg/injection, schedule: Q01DX010 (ip), vehicle: saline) 118 % of control.
As for `CCn1c2ccccc2c2cc(N)c(N=Nc3ccc([N+](=O)[O-])cc3)cc21`, the T/C runs as follows: under setting [4], 105 % of control; under setting [5], 104 % of control; under setting [6], 105 % of control.
As to `O=C1CSC2(CCN(CCCN3c4ccccc4Sc4ccc(Cl)cc43)CC2)N1`, the T/C under setting [7] is 98 % of control and the T/C under setting [8] was 116 % of control.
For the molecule `Cc1cc(C)nc(N/N=C/c2c(Cl)cccc2Cl)n1`, the T/C (dose: 50.0 mg/kg/injection, schedule: Q04DX003 (ip), vehicle: Klucel (hydroxypropylcellulose) (HPC)) is 99 % of control; the T/C (dose: 100.0 mg/kg/injection, schedule: Q04DX003 (ip), vehicle: Klucel (hydroxypropylcellulose) (HPC)) was 99 % of control; the T/C (dose: 200.0 mg/kg/injection, schedule: Q04DX003 (ip), vehicle: Klucel (hydroxypropylcellulose) (HPC)) was 97 % of control.
Turning to `Cc1cnc(=O)[nH]c1NOCc1ccccc1`, the T/C by setting is: (dose: 15.0 mg/kg/injection, schedule: Q01DX001 (ip), vehicle: saline) 98 % of control; (dose: 30.0 mg/kg/injection, schedule: Q01DX001 (ip), vehicle: saline) 105 % of control; (dose: 60.0 mg/kg/injection, schedule: Q01DX001 (ip), vehicle: saline) 100 % of control.
For `CCN(CC)C1=NS(=O)(=O)c2ccccc2C(SC)=C1C`, the T/C is 106 % of control (dose: 100.0 mg/kg/injection, schedule: Q04DX002 (ip), vehicle: saline with Tween-80); 100 % of control (dose: 200.0 mg/kg/injection, schedule: Q04DX002 (ip), vehicle: saline with Tween-80); 100 % of control (dose: 400.0 mg/kg/injection, schedule: Q04DX002 (ip), vehicle: saline with Tween-80).
On to `CCOc1ccc(NC(=O)N(c2ccnc3ccccc23)C(C)CCCN(CC)CC)cc1` (stereo not given), for which the T/C by setting is: under setting [1], 98 % of control; under setting [2], 103 % of control; under setting [3], 98 % of control.
Take `CCOC1(OCC)Cc2nc3ccccc3cc21`: the T/C reads like this: (dose: 50.0 mg/kg/injection, schedule: Q01DX005 (ip), vehicle: saline + Tween-80 + alcohol) 106 % of control; (dose: 100.0 mg/kg/injection, schedule: Q01DX005 (ip), vehicle: saline + Tween-80 + alcohol) 109 % of control; (dose: 200.0 mg/kg/injection, schedule: Q01DX005 (ip), vehicle: saline + Tween-80 + alcohol) 106 % of control.
As for `CSc1ccccc1P(c1ccccc1)c1ccccc1SC`, the T/C was 90 % of control under setting [4], 91 % of control under setting [5] and 91 % of control under setting [6].
As to `CC(=O)O[C@@H]1C[C@H]2C(C)(C)C(=O)C=C[C@]2(C)[C@H]2CC[C@]3(C)C(=CC(=O)O[C@H]3c3ccoc3)[C@@]21C`, the T/C (dose: 2.5 mg/kg/injection, schedule: Q01DX009 (ip), vehicle: Klucel (hydroxypropylcellulose) (HPC)) was 103 % of control; the T/C (dose: 5.0 mg/kg/injection, schedule: Q01DX009 (ip), vehicle: Klucel (hydroxypropylcellulose) (HPC)) was 100 % of control; the T/C (dose: 10.0 mg/kg/injection, schedule: Q01DX009 (ip), vehicle: Klucel (hydroxypropylcellulose) (HPC)) is 103 % of control and 97 % of control; the T/C (dose: 20.0 mg/kg/injection, schedule: Q01DX009 (ip), vehicle: Klucel (hydroxypropylcellulose) (HPC)) is 95 % of control; the T/C (dose: 40.0 mg/kg/injection, schedule: Q01DX009 (ip), vehicle: Klucel (hydroxypropylcellulose) (HPC)) was 103 % of control.
Regarding `Cc1ccc(S(=O)(=O)ON/N=c2\ccn(C)c3ccccc23)cc1`, the T/C reads like this: (dose: 100.0 mg/kg/injection, schedule: Q04DX003 (ip), vehicle: saline) 101 % of control; (dose: 200.0 mg/kg/injection, schedule: Q04DX003 (ip), vehicle: saline) 99 % of control; (dose: 400.0 mg/kg/injection, schedule: Q04DX003 (ip), vehicle: saline) 99 % of control.
For `CCOC(=O)C1=C(C)OC(C)(OC(C)=O)C1=O` (stereo not given), the T/C is, setting by setting: (dose: 50.0 mg/kg/injection, schedule: Q01DX005 (ip), vehicle: saline) 90 % of control; (dose: 100.0 mg/kg/injection, schedule: Q01DX005 (ip), vehicle: saline) 103 % of control; (dose: 200.0 mg/kg/injection, schedule: Q01DX005 (ip), vehicle: saline) 105 % of control.
With `C=C1C(=O)C23CC[C@H]4C(C)(CCC[C@]4(C)C(=O)O)[C@@H]2CCC1C3` (stereo not given in full), the T/C is 86 % of control (dose: 3.75 mg/kg/injection, schedule: Q01DX005 (ip), vehicle: Klucel (hydroxypropylcellulose) (HPC)); 91 % of control (dose: 7.5 mg/kg/injection, schedule: Q01DX005 (ip), vehicle: Klucel (hydroxypropylcellulose) (HPC)); 87 % of control (dose: 15.0 mg/kg/injection, schedule: Q01DX005 (ip), vehicle: Klucel (hydroxypropylcellulose) (HPC)); 98 % of control (dose: 30.0 mg/kg/injection, schedule: Q01DX005 (ip), vehicle: Klucel (hydroxypropylcellulose) (HPC)).
`O=C(O)CC1(c2ccccc2)CCCCC1`: the T/C is 103 % of control under setting [7]; 100 % of control under setting [8]; 102 % of control (dose: 200.0 mg/kg/injection, schedule: Q01DX009 (ip), vehicle: saline with Tween-80).
In the case of `CCCCOP(=O)(CCCC)OCCCC.CCCCOP(=O)(CCCC)OCCCC.CCCCOP(=O)(CCCC)OCCCC.CCCCOP(=O)(CCCC)OCCCC.O.O.[Co+2].[O-][Cl+3]([O-])([O-])O`, the T/C was 87 % of control (dose: 25.0 mg/kg/injection, schedule: Q01DX009 (ip), vehicle: saline with Tween-80); 100 % of control and 104 % of control under setting [7]; 116 % of control under setting [8].
Consider `COc1cccc2c1C(=O)c1c(O)c3c(c(O)c1C2=O)C[C@@](O)(C(C)=O)C[C@@H]3OC1CC(NC=O)C(O)C(C)O1` (stereo not given in full), for which the T/C is, setting by setting: (dose: 1.56 mg/kg/injection, schedule: Q01DX009 (ip), vehicle: saline) 117 % of control; (dose: 3.13 mg/kg/injection, schedule: Q01DX009 (ip), vehicle: saline) 119 % of control; (dose: 50.0 mg/kg/injection, schedule: Q01DX009 (ip), vehicle: saline) 153 % of control; (dose: 100.0 mg/kg/injection, schedule: Q01DX009 (ip), vehicle: saline) 155 % of control.

Source of the values: PubChem BioAssay AID330 (DTP/NCI, 2004).
